From article PMC11053683, “Tuning of the Anti-Breast Cancer Activity of Betulinic Acid via Its Conversion to Ionic Liquids” (Pharmaceutics, 2024)
Where two headings read alike, the source gives them in different places.

Legend:
[1] = Estimation of the water solubility (DMSO stock diluted with deionized water until sediment); format: physicochemical; parameters: key: “5×”: weak; “10×”: middle; “20×”:good’; “50×”: very good; “100×”: excellent; conditions: 1 mg in 100 μL DMSO, class by dilution factor
Experimental: The water solubility of betulinic acid and its derivatives was evaluated following the described method. For this purpose, 1 mg of the substance was dissolved in 100 μL of DMSO. The stock solution was diluted with 10 μL potions of deionized water until the sediment was observed. 10 μL portions were added to produce dilutions corresponding to 5 times, 10 times, 20 times, 50 times, and 100 times the original concentration.

[2] = Thermal stability by thermogravimetric analysis (TG); format: physicochemical
Experimental: The test was conducted in the 25–1000 °C temperature range at a heating rate of 10 ° min^−1 under air (flow rate of 25 cm^−3min^−1) and nitrogen (flow rate of 10 cm^−3min^−1). The weight of the samples was 5–7 mg.

[3] = test system: MCF-7 cells; experiment: Colony formation (clonogenic) assay; format: cell-based, human; conditions: for effect on MCF-7 colony formation: 2.5–12.5 µM
Experimental: Clonogenic assays were performed, and surviving fractions were calculated as described by Franken et al.. Briefly, MCF-7 cells were seeded in 6-well plates at a concentration of 500 cells/well and allowed to adhere for 48 h and subsequently treated with 2.5–12.5 µM concentration of BA and selected BA-ILs (Day 1). The BA and BA-ILs were replenished every 4 days. On Day 10, cells were fixed with 10% formalin in phosphate-buffered saline (PBS), pH 7.4 for 30 min at room temperature (RT), washed with PBS and stained with 0.1% Crystal violet solution in ddH2O, 30 min, RT, followed by a final thorough wash in ddH2O. The colonies were then imaged and analyzed with the open-source platform Fiji.

[4] = test system: MCF-7 cells; experiment: Cell morphology analysis by light microscopy; format: cell-based, human; conditions: MCF-7, 72 h, concentration close to IC50
Experimental: The changes in cell morphology after a 72 h treatment with BA and [AAOEt][BA] were observed under an inverted microscope (MEIJI, Japan) with objective 10 (Phase DM, MEIJI, Japan) and camera Optikam B1 Digital (Optika, Ponteranica, Bergamo, Italy).

[5] = parameters: method as in PMID 28273859; conditions: cited from earlier work
[6] = parameters: method as in PMID 28273859; conditions: model of intestinal mucus, compared to known drugs; cited from earlier work
[7] = test system: MCF-7 cells; experiment: MTT assay, cytotoxicity on MCF-7 cells
[8] = test system: MCF-7 cells
[9] = test system: MCF-10A cells; experiment: MTT assay, cytotoxicity on MCF-10A cells; format: cell-based, human; conditions: 72 h
Experimental: The assay was conducted as described by Mosmann. […] Non-treated cancer cells were used as a control.

C=C(C)[C@@H]1CC[C@]2(C(=O)O)CC[C@]3(C)[C@H](CC[C@@H]4[C@@]5(C)CC[C@H](O)C(C)(C)[C@@H]5CC[C@]43C)[C@@H]12 [BA, Betulinic acid]
Water Solubility [1]: weak | TDTGmax (maximum decomposition temperature) ([2]; TG, 25–1000 °C, 10 °/min): 358.7 °C | TTGonset (onset of the thermal degradation) ([2]; TG, 25–1000 °C, 10 °/min): 305.7 °C | effect on MCF-7 colony formation [3]: did not inhibit MCF-7 colony formation | changes in cell numbers and morphology [4]: reduction in cell numbers | bioavailability [5]: 2.3% | permeability classification [6]: moderate to poorly permeable | IC50 ([7]; Homo sapiens, MCF7, 72 h): 11.5 ± 1.8 µM

C=C(C)C1CCC2(C(=O)O)CCC3(C)C(CCC4C5(C)CCC(O)C(C)(C)C5CCC43C)C12.CCOC(=O)C(C)N (centres unmarked) [[AlaOEt][BA]]
Water Solubility [1]: weak | TTGonset (onset of the thermal degradation) [2]: 92.0 °C | TDTGmax (maximum decomposition temperature) ([2]; TG, 25–1000 °C, 10 °/min): 370.7 °C | IC50 ([7]; MCF-7, 72 h, MTT): 12.7 ± 4.5 µM

C=C(C)C1CCC2(C(=O)O)CCC3(C)C(CCC4C5(C)CCC(O)C(C)(C)C5CCC43C)C12.CCOC(=O)CC(N)C(=O)OCC (centres unmarked) [[Asp(OEt)2][BA]]
Water Solubility [1]: middle | TTGonset (onset of the thermal degradation) [2]: 119.8 °C | TDTGmax (maximum decomposition temperature) ([2]; TG, 25–1000 °C, 10 °/min): 357.4 °C | IC50 ([7]; MCF-7, 72 h, MTT): 8.9 ± 2.1 µM

C=C(C)C1CCC2(C(=O)O)CCC3(C)C(CCC4C5(C)CCC(O)C(C)(C)C5CCC43C)C12.CCOC(=O)C(N)CS (centres unmarked) [[CysOEt][BA]]
Water Solubility [1]: middle | TTGonset (onset of the thermal degradation) [2]: 150.1 °C | TDTGmax (maximum decomposition temperature) ([2]; TG, 25–1000 °C, 10 °/min): 359.2 °C | IC50 ([7]; MCF-7, 72 h, MTT): 9.6 ± 3.8 µM

C=C(C)C1CCC2(C(=O)O)CCC3(C)C(CCC4C5(C)CCC(O)C(C)(C)C5CCC43C)C12.CCOC(=O)C(N)C(C)CC (centres unmarked) [[IleOEt][BA]]
Water Solubility [1]: weak | TTGonset (onset of the thermal degradation) [2]: 127.5 °C | TDTGmax (maximum decomposition temperature) ([2]; TG, 25–1000 °C, 10 °/min): 369.0 °C | cytotoxicity / IC50 compared with BA [8]: IC50 values lower than that of BA | IC50 ([7]; MCF-7, 72 h, MTT): 8.5 ± 1.3 µM

C=C(C)C1CCC2(C(=O)O)CCC3(C)C(CCC4C5(C)CCC(O)C(C)(C)C5CCC43C)C12.CCOC(=O)C(N)CC(C)C (centres unmarked) [[LeuOEt][BA]]
TTGonset (onset of the thermal degradation) [2]: 114.9 °C | TDTGmax (maximum decomposition temperature) ([2]; TG, 25–1000 °C, 10 °/min): 359.4 °C | IC50 ([7]; MCF-7, 72 h, MTT): 7.5 ± 1.2 µM

C=C(C)C1CCC2(C(=O)O)CCC3(C)C(CCC4C5(C)CCC(O)C(C)(C)C5CCC43C)C12.C=C(C)C1CCC2(C(=O)O)CCC3(C)C(CCC4C5(C)CCC(O)C(C)(C)C5CCC43C)C12.CCOC(=O)C(N)CCCCN (centres unmarked) [[LysOEt][BA]2]
Water Solubility [1]: good | TTGonset (onset of the thermal degradation) [2]: 157.7 °C | TDTGmax (maximum decomposition temperature) ([2]; TG, 25–1000 °C, 10 °/min): 368.8 °C | cell specificity of action (MCF-10A vs MCF-7) [9]: did not show any cell specificity | IC50 ([9]; MCF-10A): 4 µM | surviving fraction (cell clonogenicity) ([3]; MCF-7, 12.5 µM, vs non-treated control, Day 10): below 20% | clonogenic efficiency ([3]; MCF-7, compared to that of BA (abstract)): 20% | changes in cell numbers and morphology [4]: cell rounding and shrinkage | IC50 ([7]; MCF-7, 72 h, MTT): 4.8 ± 1.3 µM

C=C(C)C1CCC2(C(=O)O)CCC3(C)C(CCC4C5(C)CCC(O)C(C)(C)C5CCC43C)C12.CCOC(=O)C(N)CCCCN (centres unmarked) [[LysOEt][BA]]
Water Solubility [1]: very good | TTGonset (onset of the thermal degradation) [2]: 144.0 °C | TDTGmax (maximum decomposition temperature) ([2]; TG, 25–1000 °C, 10 °/min): 327.3 °C | IC50 ([7]; MCF-7, 72 h, MTT): 12.9 ± 0.3 µM

C=C(C)C1CCC2(C(=O)O)CCC3(C)C(CCC4C5(C)CCC(O)C(C)(C)C5CCC43C)C12.CCOC(=O)C(N)CCSC (centres unmarked) [[MetOEt][BA]]
Water Solubility [1]: weak | TDTGmax (maximum decomposition temperature) ([2]; TG, 25–1000 °C, 10 °/min): 358.6 °C | TTGonset (onset of the thermal degradation) ([2]; TG, 25–1000 °C, 10 °/min): 125.7 °C | IC50 ([7]; MCF-7, 72 h, MTT): 7.5 ± 0.3 µM | cytotoxicity / IC50 compared with BA ([7]; MCF-7, 72 h, MTT): IC50 values lower than that of BA

C=C(C)C1CCC2(C(=O)O)CCC3(C)C(CCC4C5(C)CCC(O)C(C)(C)C5CCC43C)C12.CCOC(=O)C(N)Cc1ccccc1 (centres unmarked) [[PheOEt][BA]]
Water Solubility [1]: middle | TTGonset (onset of the thermal degradation) [2]: 133.9 °C | TDTGmax (maximum decomposition temperature) ([2]; TG, 25–1000 °C, 10 °/min): 360.1 °C | cytotoxicity / IC50 compared with BA [8]: cytotoxicity similar to BA | IC50 ([7]; MCF-7, 72 h, MTT): 12.3 ± 1.7 µM

C=C(C)C1CCC2(C(=O)O)CCC3(C)C(CCC4C5(C)CCC(O)C(C)(C)C5CCC43C)C12.CCOC(=O)C1CCCN1 (centres unmarked) [[ProOEt][BA]]
Water Solubility [1]: weak | TTGonset (onset of the thermal degradation) [2]: 121.6 °C | TDTGmax (maximum decomposition temperature) ([2]; TG, 25–1000 °C, 10 °/min): 372.1 °C | IC50 ([7]; MCF-7, 72 h, MTT): 7.6 ± 1.8 µM

C=C(C)C1CCC2(C(=O)O)CCC3(C)C(CCC4C5(C)CCC(O)C(C)(C)C5CCC43C)C12.CCOC(=O)C(N)CO (centres unmarked) [[SerOEt][BA]]
Water Solubility [1]: middle | TTGonset (onset of the thermal degradation) [2]: 118.2 °C | TDTGmax (maximum decomposition temperature) ([2]; TG, 25–1000 °C, 10 °/min): 364.1 °C | IC50 ([7]; MCF-7, 72 h, MTT): 12.2 ± 2.6 µM

C=C(C)C1CCC2(C(=O)O)CCC3(C)C(CCC4C5(C)CCC(O)C(C)(C)C5CCC43C)C12.CCOC(=O)C(N)C(C)O (centres unmarked) [[ThrOEt][BA]]
Water Solubility [1]: middle | TTGonset (onset of the thermal degradation) [2]: 109.0 °C | TDTGmax (maximum decomposition temperature) ([2]; TG, 25–1000 °C, 10 °/min): 353.5 °C | IC50 ([7]; MCF-7, 72 h, MTT): 8.2 ± 2.4 µM

C=C(C)C1CCC2(C(=O)O)CCC3(C)C(CCC4C5(C)CCC(O)C(C)(C)C5CCC43C)C12.CCOC(=O)C(N)Cc1c[nH]c2ccccc12 (centres unmarked) [[TrpOEt][BA]]
Water Solubility [1]: middle | TDTGmax (maximum decomposition temperature) ([2]; TG, 25–1000 °C, 10 °/min): 359.8 °C | cytotoxicity / IC50 compared with BA [8]: cytotoxicity similar to BA | IC50 ([7]; MCF-7, 72 h, MTT): 13.1 ± 0.4 µM

C=C(C)C1CCC2(C(=O)O)CCC3(C)C(CCC4C5(C)CCC(O)C(C)(C)C5CCC43C)C12.CCOC(=O)C(N)Cc1ccc(O)cc1 (centres unmarked) [[TyrOEt][BA]]
Water Solubility [1]: weak | TTGonset (onset of the thermal degradation) [2]: 202.3 °C | TDTGmax (maximum decomposition temperature) ([2]; TG, 25–1000 °C, 10 °/min): 354.4 °C | cytotoxicity / IC50 compared with BA [8]: cytotoxicity similar to BA | IC50 ([7]; MCF-7, 72 h, MTT): 14.2 ± 2.4 µM

C=C(C)C1CCC2(C(=O)O)CCC3(C)C(CCC4C5(C)CCC(O)C(C)(C)C5CCC43C)C12.CCOC(=O)C(N)C(C)C (centres unmarked) [[ValOEt][BA]]
Water Solubility [1]: weak | TTGonset (onset of the thermal degradation) [2]: 116.8 °C | TDTGmax (maximum decomposition temperature) ([2]; TG, 25–1000 °C, 10 °/min): 354.0 °C | effect on MCF-7 colony formation [3]: did not inhibit MCF-7 colony formation | IC50 ([7]; MCF-7, 72 h, MTT): 25.7 ± 0.8 µM
